We go through 13 compounds from PubChem BioAssay (NCI).

Some test systems named below: A549 NSCLC; ACHN renal; HCT-116 colon; MDA-MB-231 breast; MDA-N; PC-3 prostate; RPMI-8226 leukemia; SK-OV-3 ovarian; SW-620 colon; U251 CNS; A498 renal; NCI-H226 lung.
Holding throughout (assay): NCI-60 cell line screen, 48 h

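48-hour exposure; five concentrations; linearly interpolated endpoints. TGI: total growth inhibition.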

As to `O=C(NCCC(F)(F)C(F)(F)C(F)(F)C(F)(F)F)NC1OC(CO)C(O)C(O)C1O` (stereo unspecified), the TGI in the assay with A549 NSCLC, in the assay with ACHN renal, in the assay on HCT-116 colon, in the assay on MDA-MB-231 breast, in the assay with MDA-N and in the assay on PC-3 prostate was above 100 µM each time. The TGI in the assay with RPMI-8226 leukemia, with SK-OV-3 ovarian, with SW-620 colon and in the assay on U251 CNS was above 100 µM throughout.
`CC(C)C(C/C=C1\CC(CO)(COC(=O)c2ccccc2)OC1=O)C(C)C` (stereo unspecified): the TGI was determined as 50.7 µM in the assay on A498 renal; 30.5 µM in the assay with A549 NSCLC; 32 µM in the assay with ACHN renal; 31 µM in the assay with HCT-116 colon; 44.2 µM with MDA-MB-231 breast; 57.8 µM in the assay with MDA-N. For the same compound, the TGI in the assay on NCI-H226 lung came to 39.8 µM; in the assay with PC-3 prostate, 32.5 µM; in the assay with SK-OV-3 ovarian, 87.9 µM; in the assay on SW-620 colon it was 33.8 µM; in the assay with U251 CNS it was 39.1 µM.
With `CC(=O)NCCC1CN(C(=O)/C=C\C#C[Si](C)(C)C)c2ccccc21` (stereo unspecified), the TGI in the assay on A498 renal was above 100 µM; in the assay with A549 NSCLC, above 100 µM; with ACHN renal, above 100 µM; with MDA-MB-231 breast it was 67.3 µM; with MDA-N it was above 100 µM; with NCI-H226 lung, 46 µM. The TGI in the assay with PC-3 prostate, in the assay with RPMI-8226 leukemia, in the assay on SK-OV-3 ovarian and in the assay with SW-620 colon was above 100 µM in each case.
In the case of `O=C(Nc1cccc(C(F)(F)F)c1)O/N=C(/Cl)CCl`, the TGI is above 100 µM with A498 renal; above 100 µM with A549 NSCLC; above 100 µM in the assay with ACHN renal; above 100 µM in the assay on HCT-116 colon; 39 µM in the assay with MDA-MB-231 breast; above 100 µM in the assay with MDA-N. Moreover, the TGI was above 100 µM in the assay on PC-3 prostate; 75.1 µM in the assay with RPMI-8226 leukemia; above 100 µM in the assay on SK-OV-3 ovarian; above 100 µM in the assay on SW-620 colon; above 100 µM in the assay with U251 CNS.
As to `CC(C)CCC[C@@H](C)[C@H]1CCC2C3CC=C4C[C@@H](Oc5c6ccccc6nc6ccccc56)CCC4C3CCC21` (stereo partly specified), the TGI in the assay with A549 NSCLC, in the assay with ACHN renal, with HCT-116 colon, in the assay with MDA-MB-231 breast, with MDA-N and in the assay on NCI-H226 lung was above 50 µM in each case. The TGI in the assay on PC-3 prostate, in the assay on SK-OV-3 ovarian, in the assay with SW-620 colon and in the assay on U251 CNS was above 50 µM throughout.
As for `Cc1cc(-c2[nH]c(C(=O)O)cc2I)on1`, the TGI in the assay on A498 renal, with A549 NSCLC, in the assay on ACHN renal, in the assay on HCT-116 colon, in the assay with MDA-MB-231 breast and in the assay on MDA-N was above 100 µM in each case. Further, the TGI with PC-3 prostate, in the assay with RPMI-8226 leukemia, in the assay on SK-OV-3 ovarian, with SW-620 colon and with U251 CNS was above 100 µM throughout.
With `O=c1/c(=C\c2ccccc2)sc2n1C(c1ccccc1)C1(O)CCCCC1N=2` (stereo unspecified), the TGI with A498 renal, with A549 NSCLC, in the assay with ACHN renal, in the assay on HCT-116 colon, in the assay with MDA-MB-231 breast and in the assay on MDA-N was above 100 µM each time. The TGI in the assay with NCI-H226 lung, in the assay on PC-3 prostate, with RPMI-8226 leukemia, with SW-620 colon and in the assay on U251 CNS was above 100 µM throughout.
Consider `CCOC(=O)Oc1cc2c(c(OC)c1OC)-c1ccc(SC)c(=O)cc1C(NC(=O)C(F)(F)F)CC2` (stereo unspecified), for which the TGI in the assay on A498 renal was 0.554 µM; in the assay with A549 NSCLC, above 100 µM; in the assay on ACHN renal, 52.8 µM; in the assay with MDA-N it was below 0.001 µM; with NCI-H226 lung, 0.00301 µM; in the assay with PC-3 prostate it was above 100 µM. The TGI with RPMI-8226 leukemia was 14.1 µM; with SW-620 colon it was above 100 µM; with U251 CNS, 0.0148 µM.
As to `Cc1ccc(N=Nc2c(O)ccc3cc(S(=O)(=O)O)ccc23)c(C)c1`, the TGI with A498 renal, in the assay with A549 NSCLC, in the assay with ACHN renal, with HCT-116 colon, in the assay with MDA-MB-231 breast and in the assay with MDA-N was above 100 µM throughout. The TGI with NCI-H226 lung, with PC-3 prostate, in the assay with SK-OV-3 ovarian, with SW-620 colon and with U251 CNS was above 100 µM in each case.
As to `CN1C(=S)C(c2ccccc2)Sc2ccccc21` (stereo unspecified), the TGI in the assay on A549 NSCLC, with ACHN renal, in the assay with HCT-116 colon, with MDA-MB-231 breast, with MDA-N and in the assay on NCI-H226 lung was above 100 µM each time. The TGI in the assay on PC-3 prostate, in the assay on RPMI-8226 leukemia, in the assay with SK-OV-3 ovarian and in the assay on U251 CNS was above 100 µM each time.
Take `Cn1c(C(C#N)c2nc(Cl)ncc2Br)nc2ccccc21` (stereo unspecified): the TGI in the assay on A498 renal, in the assay on A549 NSCLC, with ACHN renal, in the assay with HCT-116 colon, in the assay on MDA-MB-231 breast and in the assay on MDA-N was above 100 µM in each case. Also, the TGI in the assay on NCI-H226 lung, in the assay on RPMI-8226 leukemia, in the assay on SK-OV-3 ovarian, in the assay with SW-620 colon and in the assay on U251 CNS was above 100 µM throughout.
For `COc1cccc(-c2ccc3c4c2O[C@H]2c5[nH]c6ccccc6c5C[C@@]5(O)[C@@H](C3)N(CC3CC3)CC[C@]425)c1`, the TGI worked out at 6.83 µM in the assay on A498 renal; 3.36 µM in the assay on A549 NSCLC; 2.98 µM in the assay on ACHN renal; 2.99 µM in the assay with HCT-116 colon; 3.44 µM with MDA-MB-231 breast; 3.28 µM in the assay on MDA-N. In addition, the TGI with NCI-H226 lung is 30.2 µM; in the assay with PC-3 prostate, 2.48 µM; in the assay with RPMI-8226 leukemia it was 5.25 µM; in the assay on SW-620 colon it was 4.77 µM; with U251 CNS it was 3.15 µM.
On to `CCOc1cc(NC(C)=O)ccc1C(=O)NN1C(=O)C(Oc2ccccc2)C1c1ccccc1` (stereo unspecified), for which the TGI in the assay on A498 renal, in the assay on ACHN renal, in the assay with HCT-116 colon, in the assay with MDA-MB-231 breast, in the assay with MDA-N and with NCI-H226 lung was above 100 µM throughout. Besides, the TGI in the assay on PC-3 prostate, in the assay on RPMI-8226 leukemia, in the assay on SK-OV-3 ovarian and with SW-620 colon was above 100 µM in each case.
